Where a name gives a salt, the structure may show the parent alone.
Key:
[1] = target: T1, SMYD3 (Homo sapiens (Human), UniProt Q9H7B4); test: SMYD3 biochemical assay (SPA, 3H-SAM methylation of MEKK2 protein substrate)
Outline: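 Enzyme: untagged full-length human SMYD3 from E. coli; substrate GST-tagged MEKK2 from insect cells. Buffer 25 mM Tris-Cl pH 8.0, 1 mM TCEP, 0.005% BSG/Tween 20. 30 min compound–enzyme preincubation at RT; 3H-SAM/MEKK2 start; stop with cold SAM (100 uM final); SPA readout in cpm.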

[2] = target: T1, SMYD3; test: SMYD3 cell assay (Trimethyl-MEKK2 In-Cell Western in 293T/17 cells); format: cell-based
Text: Trimethyl-MEKK2-in-Cell Western Assay
MEM/Glutamax medium, Optimem Reduced Serum medium, penicillin-streptomycin, 0.05% trypsin and 1×D-PBS were purchased from Life Technologies, Grand Island, N.Y., USA. PBS-10× was purchased from Ambion, Life Technologies, Grand Island, N.Y., USA. PBS with Tween 20 (PBST (10×)) was purchased from KPL, Gaithersburg, Md., USA. Tet System FBS-approved FBS US Source was purchased from Clontech, Mountain View, Calif., USA. Odyssey blocking buffer, 800CW goat anti-rabbit IgG (H+L) antibody, 680CW Goat anti-mouse IgG (H+L) and Licor Odyssey infrared scanner were purchased from Licor Biosciences, Lincoln, Nebr., USA. Tri-methyl-Lysine [A260]-MEKK2 antibody, MEKK2 and SMYD3 plasmids were made at Epizyme. Anti-flag monoclonal mouse antibody was purchased from Sigma, St. Louis, Mo., USA. Methanol was purchased from VWR, Franklin, Mass., USA. 10% Tween 20 was purchased from KPL, Inc., Gaithersburg, Md., USA. Fugene was purchased from Promega, Madison, Wis., USA. The Biotek ELx405 was purchased from BioTek, Winooski, Vt., USA. The multidrop combi was purchased from Thermo Scientific, Waltham, Mass., USA.
Cell Treatment, in Cell Western (ICW) for Detection of Trimethyl-Lysine-MEKK2 and MEKK2.
Plasmids were prepared for delivery to cells by first mixing 1350 μL Opti-MEM with Fugene (81 μL) in a sterile Eppendorf and incubated for five minutes at room temperature (RT). […] Entire volume of Opti-MEM/Fugene mixture was then added to a microfuge tube containing DNA plasmid, mixed and then incubated×15 minutes at RT. […] Medium was then removed, and cells were washed once with PBS in the flask. Trypsin 0.05% (3 mL) was added and cells incubated for three minutes. Room temperature MEM+10% Tet system FBS was added and cells were mixed gently, and counted using the Vi-cell. Cells were seeded at 100,000 cells/mL in 50 μL MEM/10% Tet FBS/Pen/Strep to a 384 well black/clear poly-D-lysine coated plate containing test agent diluted in DMSO. The final top concentration of test compound was 40 μM. […] Plates were incubated×30 minutes at RT in low-airflow area, followed by incubation at 37° C. under 5% CO2 for 24 hours. Medium was aspirated from all wells of assay plates prior to fixation and permeabilization with ice cold (−20° C.) methanol (90 μL/well) for ten minutes. Plates were rinsed with PBS three times on BioTek ELx405. PBS was removed with a final aspiration, and Odyssey blocking buffer (50 μL/well) was added to each well and incubated for one hour at RT. Primary antibody solution was prepared (anti-trimethyl-MEKK2 at 1:600 dilution plus mouse anti-flag antibody at 1:10,000 dilution in diluent (Odyssey Blocking buffer+0.1% Tween 20)) and 20 μL per well was dispensed using the Multidrop Combi. Assay plates were then sealed with foil, and incubated overnight at 4° C. Plates were washed five times with PBS-Tween (1×) on Biotek ELx405 and blotted on paper towel to remove excess reagent.
First, the ratio for each well was determined by:
Each plate included fourteen control wells of DMSO only treatment (Minimum Inhibition) as well as fourteen control wells for maximum inhibition (Background). The average of the ratio values for each control type was calculated and used to determine the percent inhibition for each test well in the plate. Reference compound was serially diluted two-fold in DMSO for a total of nine test concentrations, beginning at 40 μM.
Percent inhibition was calculated (below).
Non-linear regression curves were generated to calculate the IC50 and dose-response relationship using triplicate wells per concentration of compound.

[3] = read-out: SMYD3 Biochem IC50 (μM)*
[4] = 293T/17 cells, read-out: SMYD3 Cell IC50 (μM)*
[5] = read-out: SMYD3 Cell IC50 (μM)*
[6] = Table 1A, IC50 values are an average of n = 1 to n = 50, read-out: SMYD3 Cell IC50
[7] = Table 2A, read-out: SMYD3 Biochem IC50
[8] = Table 2A, read-out: SMYD3 Cell IC50

T1 sequence (Q9H7B4 whole entry): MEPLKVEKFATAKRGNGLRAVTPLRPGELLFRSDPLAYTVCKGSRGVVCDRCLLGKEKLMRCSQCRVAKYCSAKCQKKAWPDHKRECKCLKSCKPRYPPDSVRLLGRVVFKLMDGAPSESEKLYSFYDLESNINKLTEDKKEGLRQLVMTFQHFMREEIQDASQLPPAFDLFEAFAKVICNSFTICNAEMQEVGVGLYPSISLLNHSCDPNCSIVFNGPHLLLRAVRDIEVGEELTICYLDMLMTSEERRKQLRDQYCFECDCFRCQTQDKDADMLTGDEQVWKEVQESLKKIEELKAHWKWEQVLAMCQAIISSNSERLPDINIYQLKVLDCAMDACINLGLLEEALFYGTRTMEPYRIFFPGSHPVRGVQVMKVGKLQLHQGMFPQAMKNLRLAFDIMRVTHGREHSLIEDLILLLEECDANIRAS

Compound | IC50 [1, 3] | IC50 [2, 4] | other results
C[C@H]1C[C@@H](NC(=O)c2cc(C3CC3)on2)CCN1S(=O)(=O)CC1CCNCC1 (single isomer, unassigned) [Cpd. No. 417] | 0.00307 µM | 0.0508 µM | –
C[C@@H]1C[C@H](NC(=O)c2cc(C3CC3)on2)CCN1S(=O)(=O)CC1CCNCC1 (single isomer, unassigned) [Cpd. No. 418] | 0.0172 µM | 0.197 µM | –
O=C(N[C@@H]1C[C@H]2CC[C@@H](C1)N2S(=O)(=O)CCN1CCCC1)c1cc(C2CC2)on1 (single isomer, unassigned) [Cpd. No. 436] | 0.0613 µM | 0.285 µM | –
CC(C)c1cc(C[C@@H](CN)C(=O)N2CCC(NC(=O)c3cc(C4CC4)on3)CC2)ccc1O [Cpd. No. 121, N-[1-[(2S)-3-amino-2-[[4-hydroxy-3-(propan-2-yl)phenyl]methyl]propanoyl]piperidin-4-yl]-5-cyclopropyl-1,2-oxazole-3-carboxamide hydrochloride salt] | 0.00957 µM | – | IC50 [2, 5]: 0.68 µM
NCCCS(=O)(=O)N1C2CCCC1CC(NC(=O)c1cc(C3CC3)on1)C2 (centres unmarked) [Cpd. No. 181, N-[9-[(3-aminopropane)sulfonyl]-9-azabicyclo[3.3.1]nonan-3-yl]-5-cyclopropyl-1,2-oxazole-3-carboxamide hydrochloride salt] | 0.0927 µM | – | IC50 [2, 5]: 0.566 µM
C[C@H]1C[C@@H](NC(=O)c2cc(C3CC3)on2)CCN1S(=O)(=O)N1CCN(C)CC1 [Cpd. No. 279, 5-cyclopropyl-N-[(2S,4S)-2-methyl-1-(4-methylpiperazine-1-sulfonyl)piperidin-4-yl]-1,2-oxazole-3-carboxamide] | 0.0815 µM | 0.266 µM | –
O=C(N[C@H]1CCN(C(=O)CC2CCNCC2)[C@@H](Cc2ccccc2)C1)c1cc(C2CC2)on1 [Cpd. No. 348, N-((2S,4S)-2-benzyl-1-(2-(piperidin-4-yl)acetyl)piperidin-4-yl)-5-cyclopropylisoxazole-3-carboxamide hydrochloride] | 0.0225 µM | 0.838 µM | –
C[C@H]1CN(S(=O)(=O)CCCN)CC[C@H]1NC(=O)c1cc(C2CC2)on1 [Cpd. No. 386, N-((3S,4R)-1-(3-aminopropylsulfonyl)-3-methylpiperidin-4-yl)-5-cyclopropylisoxazole-3-carboxamide] | 0.0282 µM | – | IC50 [2]: 0.34 µM
C[C@@H]1CN(C(=O)[C@H]2CC[C@H](N)CC2)[C@H](C)C[C@@H]1NC(=O)c1cc(C2CC2)on1 [Cpd. No. 420, N-((2R,4S,5R)-1-((1r,4R)-4-aminocyclohexanecarbonyl)-2,5-dimethylpiperidin-4-yl)-5-cyclopropylisoxazole-3-carboxamide] | 0.0113 µM | 0.205 µM | –
C[C@H]1C[C@@H](NC(=O)c2cc(C3CC3)on2)CCN1S(=O)(=O)c1ccc(NCCN2CCOCC2)nc1 [Cpd. No. 458, 5-cyclopropyl-N-((2S,4S)-2-methyl-1-(6-(2-morpholinoethylamino)pyridin-3-ylsulfonyl)piperidin-4-yl)isoxazole-3-carboxamide dihydrochloride] | 0.132 µM | 0.581 µM | –
NCCCS(=O)(=O)N1[C@@H]2CC[C@H]1C[C@@H](NC(=O)c1cc(C3CC3)on1)C2 [Cpd. No. 485, N-((1S,3r,5R)-8-(3-aminopropylsulfonyl)-8-aza-bicyclo[3.2.1]octan-3-yl)-5-cyclopropylisoxazole-3-carboxamide] | 0.00507 µM | 0.129 µM | –
C[C@H]1C[C@@H](NC(=O)c2cc(C3CC3)on2)CCN1S(=O)(=O)CCCNCc1ccccc1 [Cpd. No. 500, N-((2S,4S)-1-(3-(benzylamino)propylsulfonyl)-2-methylpiperidin-4-yl)-5-cyclopropylisoxazole-3-carboxamide] | – | – | IC50 ([1]; Table 1A, IC50 values are an average of n = 1 to n = 50, read-out: SMYD3 Biochem IC50): 0.00813 µM; IC50 [2, 6]: 0.106 µM
O=C(N[C@H]1C[C@H]2CC[C@@H](C1)N2S(=O)(=O)CC1CCN(CCCC(F)(F)F)CC1)c1cc(C2CC2)on1 [Cpd. No. 528, 5-cyclopropyl-N-[(1R,3r,5S)-8-([[1-(4,4,4-trifluorobutyl)piperidin-4-yl]methane]sulfonyl)-8-azabicyclo[3.2.1]octan-3-yl]-1,2-oxazole-3-carboxamide] | – | – | IC50 [1, 7]: 0.0006 µM; IC50 [2, 8]: 0.0231 µM
C[C@H]1C[C@@H](NC(=O)c2cc(C3CC3)on2)CCN1S(=O)(=O)N1CCC(N)CC1 [Cpd. No. 529, N-((2S,4S)-1-(4-aminopiperidin-1-ylsulfonyl)-2-methylpiperidin-4-yl)-5-cyclopropylisoxazole-3-carboxamide trifluoroacetic acid] | – | – | IC50 [1, 7]: 0.0008 µM; IC50 [2, 8]: 0.0152 µM
NC1CCN(S(=O)(=O)N2[C@@H]3CC[C@H]2C[C@@H](NC(=O)c2cc(C4CC4)on2)C3)CC1 [Cpd. No. 532, N-((1R,3r,5S)-8-(4-aminopiperidin-1-ylsulfonyl)-8-aza-bicyclo[3.2.1]octan-3-yl)-5-cyclopropylisoxazole-3-carboxamide hydrochloride] | – | – | IC50 [1, 7]: 0.0009 µM; IC50 [2, 8]: 0.0214 µM
C[C@H]1C[C@@H](NC(=O)c2cc(C3CC3)on2)CCN1S(=O)(=O)c1ccc(C(C)(C)N)cc1 [Cpd. No. 541, N-((2S,4S)-1-(4-(2-aminopropan-2-yl)phenylsulfonyl)-2-methylpiperidin-4-yl)-5-cyclopropylisoxazole-3-carboxamide] | – | – | IC50 [1, 7]: 0.0014 µM; IC50 [2, 8]: 0.0259 µM
O=C(N[C@H]1C[C@H]2CC[C@@H](C1)N2S(=O)(=O)CC1CCNCC1)c1cc(C2CC2)on1 [Cpd. No. 543, 5-cyclopropyl-N-((1R,3r,5S)-8-(piperidin-4-ylmethylsulfonyl)-8-aza-bicyclo [3.2.1]octan-3-yl) isoxazole-3-carboxamide] | – | – | IC50 [1, 7]: 0.0018 µM; IC50 [2, 8]: 0.0445 µM
C[C@@H]1C[C@H](NC(=O)c2cc(C3CC3)on2)CCN1C(=O)c1ccc(C2(N)CCC2)cc1 [compound 479, N-((2R,4R)-1-(4-(1-aminocyclobutyl)benzoyl)-2-methylpiperidin-4-yl)-5-cyclopropylisoxazole-3-carboxamide] | – | 2.03 µM | –
O=C(N[C@@H]1C[C@H]2CC[C@@H](C1)N2S(=O)(=O)c1ccc2[nH]c(=O)[nH]c2c1)c1cc(C2CC2)on1 [compound 494, 5-cyclopropyl-N-((1R,3s,5S)-8-((2-oxo-2,3-dihydro-1H-benzo[d]imidazol-5-yl)sulfonyl)-8-azabicyclo[3.2.1]octan-3-yl)isoxazole-3-carboxamide] | – | – | IC50 [2, 6]: 5.18 µM
CC(C)[C@H]1C[C@@H](NC(=O)c2cc(C3CC3)on2)CCN1S(=O)(=O)CCCN [compound 501, N-((2R,4S)-1-((3-aminopropyl)sulfonyl)-2-isopropylpiperidin-4-yl)-5-cyclopropylisoxazole-3-carboxamide] | – | – | IC50 [2, 6]: 4.49 µM
C[C@@H]1CN(S(=O)(=O)CCCNCc2ccccc2)[C@H](C)C[C@@H]1NC(=O)c1cc(C2CC2)on1 [compound 681, N-((2R,4S,5R)-1-((3-(benzylamino)propyl)sulfonyl)-2,5-dimethylpiperidin-4-yl)-5-cyclopropylisoxazole-3-carboxamide] | – | – | IC50 ([2]; average of n = 1 to n = 50, read-out: SMYD3 Cell IC50): 0.93 µM

Source: patent US10577363B2, “Substituted piperidine compounds” (EPIZYME, INC., priority 2014, dated 2020)
